“And” between values parts separate entries of the source, which are not always exact repeats. Identical values can stand only once.

Test [1] relates to persistierendem Vorhofflimmern (AF). Nature of the test: Atrial fibrillation cycle length (AFCL) in goats with persistent atrial fibrillation. Format: in vivo, Ziegen. Here is the method: (§1) Es wurden Versuche an zwei Ziegen durchgeführt, die sich in persistierendem Vorhofflimmem von mehr als 45 Tagen befanden. Nach Infusion von 0,9% Kochsalzlösung über 30 min zur Kontrolle, wurde einer Ziege die Verbindung des Beispiels 1 der Reihe nach (jeweils im Abstand von Tagen) in Mengen von jeweils 0.0 (Kontrolle), 0.1, 0.3, 1, 3 und 10 mg pro kg Körpergewicht und pro Stunde über eine Dauer von 90 Minuten infundiert, wobei nach 60 Minuten zusätzlich 2 mg Ibutilide pro Kilogramm Körpergewicht in einem Zeitintervall von 30 min verabreicht wurde.
(§2) Analog wurden einer zweiten Ziege nach 60 Minuten Verabreichung verschiedener Mengen der Verbindung des Beispiels 1 (jeweils 0.0 (Kontrolle), 0.1, 0.3, 1, 3 und 10 mg pro kg Körpergewicht und pro Stunde jeweils im Abstand von Tagen) zusätzlich 10 µg Dofetilide pro kg Körpergewicht in einem Zeitintervall von 30 Minuten anstelle von Ibutilide verabreicht.
In Fig.1 und Fig.2 sind die Messungen der Zykluslänge des atrialen Flimmerns (AFCL) nach kombinierter Gabe von Ibutilide und der Verbindung des Beispiels 1 bzw. nach kombinierter Gabe von Dofetilide und der Verbindung des Beispiels 1 dargestellt. Die Messungen des AFCL und der Kardioversion erfolgten nebeneinander.
In den Zeichnungen wurden folgende Beschriftungen und Kennzeichnungen vorgenommen: • Fig.1: Messung der Zykluslänge des atrialen Flimmerns (AFCL) nach kombinierter Gabe von Ibutilide und der Verbindung des Beispiels 1 Y-Achse: AFCL in ms X-Achse: Zeit in Minuten Die Verbindung des Beispiels 1 wurde in folgenden Mengen infundiert: • 10 mg/kg/h • 3 mg/kg/h • 1 mg/kg/h • 0.3 mg/kg/h • 0.1 mg/kg/h • 0.0 mg/kg/h (Kontrolle) • Fig.2: Messung der Zykluslänge des atrialen Flimmerns (AFCL) nach kombinierter Gabe von Dofetilide und der Verbindung des Beispiels 1 Y-Achse: AFCL in ms X-Achse: Zeit in Minuten Die Verbindung des Beispiels 1 wurde in folgenden Mengen infundiert: • 10 mg/kg/h • 3 mg/kg/h • 1 mg/kg/h • 0.3 mg/kg/h • 0.1 mg/kg/h • 0.0 mg/kg/h (Kontrolle)

For test [2], the system named is Ziegen mit persistierendem Vorhofflimmern (AF). As to the kind of experiment: Efficiency of cardioversion in up to eight goats with persistent atrial fibrillation. Type of test: in vivo. As to the method: In weiteren Versuchen wurde die Effizienz der Kardioversion bei verschiedenen Dosierungen der Verbindung des Beispiels 1 und bei zusätzlicher Infusion von Ibutilide (2 mg/kg) bzw. Dofetilide (10 µg/kg) an mehreren Ziegen getestet (Tabelle 5).
Es wurden Versuche an bis zu acht Ziegen durchgeführt, die sich in persistierendem Vorhofflimmern befanden. Nach Infusion von 0,9% Kochsalzlösung über 30 min zur Kontrolle wurden bis zu acht Ziegen die Verbindung des Beispiels 1 (jeweils im Abstand von Tagen) in Mengen von jeweils 0.0 (Kontrolle), 0.1, 0.3, 1, 3 und 10 mg pro kg Körpergewicht und pro Stunde über eine Dauer von 90 Minuten infundiert, wobei nach 60 Minuten zusätzlich 2 mg Ibutilide pro Kilogramm Körpergewicht in einem Zeitintervall von 30 min verabreicht wurde.
Analog wurden an bis zu acht Ziegen nach 60 Minuten Verabreichung verschiedener Mengen der Verbindung des Beispiels 1 (jeweils 0.0 (Kontrolle), 0.1, 0.3, 1,3 und 10 mg pro kg Körpergewicht und pro Stunde jeweils im Abstand von Tagen) zusätzlich 10 µg Dofetilide pro kg Körpergewicht in einem Zeitintervall von 30 Minuten anstelle von Ibutilide verabreicht.
Die Effizienz der Kardioversion von persistierendem Vorhofflimmern (AF) durch die Gabe der Verbindung des Beispiels 1 mit ibutilide bzw. der Verbindung des Beispiels 1 mit Dofetilide sind in der Tabelle 5 bei verschiedenen Dosierungen der Verbindung des Beispiels 1 (0.0, 0.1, 0.3, 1, 3 und 10 mg pro kg Körpergewicht und pro Stunde) dargestellt. Angegeben sind die Anzahl der Ziegen, bei denen Kardioversion auftrat, im Vergleich zu der Anzahl der Ziegen, mit denen der Versuch durchgeführt wurde, und daraus errechnet die Effizienz der Kardioversion in Prozent. Jede Terminierung des persistenten Vorhofflimmerns während einer jeweiligen Infusionsperiode wurde als eine erfolgreiche Kardioversion angesehen. […] Tabelle 5: Effizienz der Kardioversion in Prozent bei Ziegen mit persistierendem Vorhofflimmern (AF) bei verschiedenen Dosierungen der Verbindung des Beispiels 1 und bei zusätzlicher Infusion von Ibutilide bzw. Dofetilide. In Klammern angegeben ist jeweils das Verhältnis Ziegen, bei denen Kardioversion auftrat, zu Ziegen, die bei dem jeweiligen Versuch eingesetzt wurden.

In test [3] the test system is normalen Ziegen. As to the kind of experiment: Atrial effective refractory period (AERP) in normal goats. Format: in vivo. As to conditions: for atriale effektive Refraktärzeit (AERP): Nicht remodelliert, cycle length 400 ms, mean ± SD, Beispiel 1 3 mg/kg/h; for Verlängerung der AERP: normal atria. Here is the method: (§3) An chronisch instrumentierten Ziegen wurden die elektrophysiologischen Effekte der Verbindung des Beispiels 1, des IKr-Kanalblockers Ibutilide und der Kombination von der Verbindung des Beispiels 1 und Ibutilide untersucht.
(§4) Nach Infusion von 0,9% Kochsalzlösung über 30 min zur Kontrolle wurden die Substanzen lbutilide und die Verbindung des Beispiels 1 zum einen in Monotherapie und zum anderen in Kombination der beiden Wirkstoffe an 7 normalen Ziegen (d. h. ohne induziertes Vorhofflimmem) durch intravenöse Infusion verabreicht und die atriale effektive Refraktärzeit (AERP) bestimmt. Bei der Monotherapie wurde über die Zeitdauer von 60 Minuten 0.12 mg Ibutilide pro kg Körpergewicht verabreicht (0.002 mg pro kg pro Minute). In der Kombination wurden über die Dauer von 120 Minuten 6 mg der Verbindung des Beispiels 1 pro kg Körpergewicht verabreicht (3mg pro kg pro Stunde), wobei nach 60 Minuten zusätzlich 0.12 mg Ibutilide pro kg pro Stunde für die Dauer von 60 Minuten verabreicht wurden. Die Infusion der Verbindung des Beispiels 1 wurde insgesamt über 120 min durchgeführt. Kontrollmessungen der atrialen effektiven Refraktärzeit wurden einmal vor Gabe des Ibutilides (Kontrolle 1) und einmal vor Gabe der Verbindung des Beispiels 1 (Kontrolle 2) durchgeführt.
Die Kombination beider Substanzen wurde getestet, indem wie oben beschrieben nach der Infusion der Verbindung des Beispiels 1 über eine Stunde zusätzlich Ibutilide verabreicht wurde.
as §4, with “Ein analoges Infusionsschema wurde an 5 weiteren Tieren mit Dofetilide anstelle von Ibutilide durchgeführt. Nach” for “Nach”, “Dofetilide” for “lbutilide”, “5” for “7”, “Vorhofflimmern)” for “Vorhofflimmem)”, “Dofetilide” for “Ibutilide”, “Dofetilids” for “Ibutilides”

The subject of test [4] is Ziegen, mit remodellierten Vorhöfen. As to the kind of experiment: Atrial effective refractory period (AERP) in goats with electrically remodelled atria. Type of test: in vivo. As to conditions: for atriale effektive Refraktärzeit (AERP): Remodelliert (1-4 days induced AF), cycle length 400 ms, mean ± SD, Beispiel 1 3 mg/kg/h; for Verlängerung des AERP: remodelled atria. Here is the method:
as §3, §4
(§5) Das gleiche Infusionsschema wurde an denselben Tieren wiederholt, nachdem elektrische Remodellierung durch induziertes Vorhofflimmern von 1 bis 4 Tagen erzeugt wurde.
as §4, with “Ein analoges Infusionsschema wurde an 5 weiteren Tieren mit Dofetilide anstelle von Ibutilide durchgeführt. Nach” for “Nach”, “Dofetilide” for “lbutilide”, “5” for “7”, “Vorhofflimmern)” for “Vorhofflimmem)”, “Dofetilide” for “Ibutilide”, “Dofetilids” for “Ibutilides”
as §5

In test [5] the test system is persistierendem Vorhofflimmern (AF). As to the kind of experiment: Cardioversion in chronically fibrillating goats: time points of cardioversion (single goats). Type of test: in vivo, Ziegen. Here is the method: as §1, §2
Die Zeitpunkte der Kardioversion von persistierendem Vorhofflimmem (AF) durch die Gabe der Verbindung des Beispiels 1 mit Ibutilide bzw. der Verbindung des Beispiels 1 mit Dofetilide sind in den Tabellen 3 und 4 bei verschiedenen Dosierungen der Verbindung des Beispiels 1 (0.0, 0.1, 0.3, 1,3 und 10 mg pro kg Körpergewicht und pro Stunde) dargestellt. Tabelle 3: Auftreten der Kardioversion von persistierendem Vorhofflimmern (AF) nach jeweiliger Reinduktion des Vorhofflimmerns bei verschiedenen Dosierungen der Verbindung des Beispiels 1 und bei zusätzlicher Infusion von Ibutilide nach 60 Minuten (Zeitpunkte in Minuten gemessen ab Beginn der Infusion der Verbindung des Beispiels 1)

The mark [6] stands for this setting: Beispiel 1 dose 0, Ibutilide 2mg/kg or Dofetilide 10µg/kg alone.
The mark [7] stands for this setting: 5 goats, i.v. infusion: Dofetilide 0.12 mg/kg over 60 min.
The mark [8] stands for this setting: n=5, versus control before dosing (151 ms and 158 ms), Dofetilide study.
The mark [9] stands for this setting: n=5, versus control (94 ms and 93 ms), Dofetilide study.
[10] abbreviates: Fig.1 goat, Ibutilide 2 mg/kg per 30 min given after 60 min (alone: from 94 ms baseline), Beispiel 1 3 mg/kg/h.
[11] abbreviates: 7 goats, i.v. infusion: Ibutilide 0.12 mg/kg over 60 min.
The mark [12] stands for this setting: n=7, versus control before dosing (159 ms and 162 ms), Ibutilide study.
The mark [13] stands for this setting: n=7, versus control (93 ms and 97 ms), Ibutilide study.
Setting [14] is: Beispiel 1 dose 0,1, alone or + Ibutilide 2mg/kg or + Dofetilide 10µg/kg.
Setting [15] is: Beispiel 1 dose 0,3, alone or + Ibutilide 2mg/kg or + Dofetilide 10µg/kg.
[16] abbreviates: Beispiel 1 dose 1, alone or + Ibutilide 2mg/kg or + Dofetilide 10µg/kg.
[17] abbreviates: Beispiel 1 dose 10, alone or + Ibutilide 2mg/kg or + Dofetilide 10µg/kg.

Consider `CN(CCOc1ccc(NS(C)(=O)=O)cc1)CCc1ccc(NS(C)(=O)=O)cc1` [Dofetilide, reference compound], for which, in test [1] (Fig.2 goat, 10 µg/kg Dofetilide over 30 min without Beispiel 1), the “Anstieg der AFCL” value is given as 14 ms. The same compound showed an AFCL in test [1] (Fig.2 goat, 10 µg/kg Dofetilide over 30 min without Beispiel 1, from 92 ms baseline) of 106 ms. Besides, in test [2] (setting [6]), the “Effizienz der Cardioversion” value is recorded as 25% and the “Verhältnis Ziegen, bei denen Kardioversion auftrat, zu Ziegen, die eingesetzt wurden” value (shortened to “Verhältnis Ziegen”) was “(1/4)”. Further, in test [3] (setting [7]), the “atriale effektive Refraktärzeit (AERP)” value is given as 172 ± 11 ms. Moreover, the “Verlängerung der AERP” value in test [3] (setting [8]) is given as 21 ms. In test [4] (setting [7]), the “atriale effektive Refraktärzeit (AERP)” value stood at 101 ± 19 ms. For the same compound, the “Verlängerung des AERP” value in test [4] (setting [9]) is given as 7 ms. Moreover, the Kardioversion result in test [5] (10 µg/kg Dofetilide over 30 min without Beispiel 1, goat of Tabelle 4) was “eine Kardioversion nicht eintritt”.

`CCCCCCCN(CC)CCCC(O)c1ccc(NS(C)(=O)=O)cc1` (stereo not drawn) [Ibutilide, reference compound] registered an AFCL in test [1] (setting [10]) of 101 ms. For the same compound, in test [2] (setting [6]), the “Effizienz der Cardioversion” value came out at 29% and the “Verhältnis Ziegen” value was “(2/7)”. In addition, in test [3] (setting [11]), the “atriale effektive Refraktärzeit (AERP)” value was found to be 185 ± 23 ms. The “Verlängerung der AERP” value in test [3] (setting [12]) is recorded as 26 ms. Further, in test [4] (setting [11]), the “atriale effektive Refraktärzeit (AERP)” value was determined as 98 ± 20 ms. The “Verlängerung des AERP” value in test [4] (setting [13]) worked out at 5 ms.

In the case of `COc1ccc(CC(=O)NCc2ccccc2-c2ccccc2C(=O)NCCc2cccnc2)cc1` [Beispiel 1, 2'-{[2-(4-Methoxy-phenyl)-acetylamino]-methyl}-biphenyl-2-carbonsäure-(2-pyridin-3-yl-ethyl)-amid], the AFCL in test [1] (setting [10]) is 147 ms; in test [1] (Fig.2 goat, Beispiel 1 alone at 0.1, 0.3, 1, 3 or 10 mg/kg/h) it was “dosisabhängigen Zunahme der AFCL”. Besides, the “Effizienz der Cardioversion” value is reported as 17% in test [2] (setting [14]); 17% in test [2] (setting [15]); 13% in test [2] (setting [16]); 38% in test [2] (Beispiel 1 dose 3, alone or + Ibutilide 2mg/kg or + Dofetilide 10µg/kg); 63% in test [2] (setting [17]). The “Verhältnis Ziegen” value in test [2] (setting [14]) is “(1/6)”; in test [2] (setting [15]), “(1/6)”; in test [2] (setting [16]), “(1/8)”; in test [2] (Beispiel 1 dose 3, alone or + Ibutilide 2mg/kg or + Dofetilide 10µg/kg, listed as Verbindung des Beispiels 1), 3 von 8 and (3/8); in test [2] (setting [17]), “(5/8)”. In addition, the “atriale effektive Refraktärzeit (AERP)” value stood at 209 ± 29 ms in test [3] (setting [7]), 206 ± 26 ms in test [3] (setting [11]), 164 ± 19 ms in test [4] (setting [7]) and 160 ± 16 ms in test [4] (setting [11]). Also, the “Verlängerung der AERP” value was 51 ms in test [3] (setting [8]) and 44 ms in test [3] (setting [12]). Besides, the “Verlängerung des AERP” value stood at 71 ms in test [4] (setting [9]) and 63 ms in test [4] (setting [13]). Further, the “Zeitpunkte der Kardioversion” value in test [5] (Beispiel 1 10mg/kg/h, time points before the start of Ibutilide at 60 min (monotherapy), one goat, listed as Verbindung des Beispiels 1, 10 mg/kg) was 42.00 Minuten and 50.00 Minuten. Further, the Kardioversion entry is recorded as “nicht zur Kardioversion” in test [5] (Beispiel 1 alone at 0.1, 0.3, 1, 3 or 10 mg/kg/h, goat of Tabelle 4) and “möglich, eine Kardioversion herbeizuführen” in test [5] (monotherapy, only at 10 mg/kg/h, goat of Tabelle 3).

The record behind these values is patent EP1605976B1, “PHENYLCARBOXYL ACID AMIDES AND IK r CHANNEL INHIBITORS COMBINATION AND THE USE THEREOF FOR TREATING ATRIAL [sequence]” (Sanofi-Aventis Deutschland GmbH, priority 2003, dated 2004).
